Measurements reported in patent publication US11446287B2, “Compounds and methods for EP300 or CBP modulation and indications therefor” (Opna Immuno-Oncology SA, priority 2019, dated 2022).

These molecules were tested against T1, Recombinant human EP300 containing the bromodomain (EP300-BD (1040-1161)) (Homo sapiens, UniProt Q09472) (assay: EP300 Alphascreen binding assay).
T1 construct: Recombinant human EP300 bromodomain (EP300-BD (1040-1161)); made in house; host or cells: E. coli BL21-CodonPlus (DE3), modified pET vector
T1 sequence (Q09472 1040-1161): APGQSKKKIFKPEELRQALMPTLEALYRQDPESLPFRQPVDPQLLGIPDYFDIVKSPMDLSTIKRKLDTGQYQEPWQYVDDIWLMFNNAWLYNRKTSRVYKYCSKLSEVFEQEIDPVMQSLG
Protocol: EP300 Alphascreen Binding Assay
Binding of compounds of Formula (I) with EP300 was assessed using Alphascreen™ binding assay. The inhibition of the interaction between the EP300 bromodomain and its acetylated target protein was measured quantitatively using recombinant EP300 protein, an acetylated Histone 3 peptide and AlphaScreen™ technology. In absence of inhibition of the EP300 protein bound to AlphaScreen™ nickel chelate acceptor beads can interact with the acetylated Histone 3 peptide which is immobilized by the AlphaScreen™ Streptavidin coated beads. This interaction brings donor and acceptor beads in proximity. The close proximity allows the singlet oxygen produced by laser excitation of the donor beads to reach the acceptor beads and generate a luminescence signal. EP300 inhibitors result in a decrease in the proximity signal through an inhibition of the EP300—acetylated peptide interaction.
Recombinant human EP300 containing the bromodomain (EP300-BD (1040-1161)) was prepared and purified as described in protein expression and purification session. The peptide is human Histone H345-64K56Ac-Biotin (Anaspec CA, USA).
Protocol for EP300 assay: All components were prepared in buffer composed of 50 mM HEPES pH 7.5, 50 mM NaCl, 0.01% BSA, 0.01% Triton X-100, 2 mM DTT. Test compounds and DMSO vehicle were diluted 1:50 in buffer and a 4 μL volume is transferred to an Alphaplate. 5.5 μL of EP300 protein and 5.5 μL of peptide were added to wells containing 4 μL of various concentrations of test compounds of Formula (I) or DMSO vehicle in an Alphaplate (PerkinElmer GA, USA) and incubated for 1 hour at room temperature. 5 μL donor and acceptor bead mixture was then added with final concentrations of 7.5 μg/ml. 60 minutes after bead addition, Alpha signal is read on the Envision spectrometer (λEx 680 nm, λEm 520-620 nm). Final concentrations of bromodomain proteins and peptide are as shown below.
All data were normalized to the mean of 16 high and 16 low control wells on each plate. A four parameter curve fit of the following formula was then applied: Y=A+((B−A)/(1+((C/x)^D))) Where ‘A’ is the minimum, ‘B’ is the maximum, ‘C’ is the IC50 and ‘D’ is the Hill slope. Protein Expression and Purification
Recombinant human EP300 bromodomain (EP300-BD (1040-1161)) was expressed in E. coli cells (in a modified pET vector) with an N-terminal six-His tag and purified using a combination of both IMAC (Ni-affinity) and size exclusion chromatography steps.
Recombinant EP300 protein was expressed using the E. coli strain BL21-CodonPlus (DE3) (Agilent Technologies CA, USA). Cells were grown in Terrific Broth (TB) media to an OD600 of 0.7 at 37° C. at which temperature was reduced to 18° C., protein was induced with 1.0 mM isopropyl-β-D-thiogalactopyranoside (“IPTG”) for 20 hours and harvested by centrifugation at 8500×g for 20 minutes. Cells were re-suspended in 0.1M K2PO4 pH 8.0, 250 mM NaCl, 10% Glycerol, 0.75% NP-40, 25 mM Imidazole, with 0.2 mg/ml Lysozyme, 0.2 mM phenylmethanesulfonyl fluoride (“PMSF”), 25 μg/ml DNase I, incubated on ice for 30 minutes and lysed with a cell disruptor (MicroFluidics MA, USA). The lysate was clarified by centrifugation at 20,000×g for 1 hour. The protein was captured with Ni-NTA resin (Life Technologies, USA). Contaminating proteins were washed off with 50 mM HEPES pH 7.5, 500 mM NaCl, and 5% Glycerol. Following 3× wash steps, protein was eluted step wise using 10, 25, 50, 100, 150, and 250 mM Imidazole in 50 mM HEPES pH 7.5, 500 mM NaCl, and 5% glycerol. The protein was further purified using a size exclusion column (26/600 Superdex 200, GE Biosciences NJ, USA) in 10 mM HEPES pH 7.5, […].
For `Cc1ccc(S(=O)(=O)n2cc(-c3ccc(C(=O)O)cc3)c3cc(-c4c(C)noc4C)cnc32)cc1` [P-0006, 4-(5-(3,5-dimethylisoxazol-4-yl)-1-tosyl-1H-pyrrolo[2,3-b]pyridin-3-yl)benzoic acid], the IC50 was 1000 to 8000 nM.
Work on `Cc1noc(C)c1-c1cnc2c(c1)c(-c1ccc(C(=O)O)cc1)cn2C(c1ccccn1)C1CC1` (stereo not drawn) [P-0007, 4-(1-(cyclopropyl(pyridin-2-yl)methyl)-5-(3,5-dimethylisoxazol-4-yl)-1H-pyrrolo[2,3-b]pyridin-3-yl)benzoic acid] yielded an IC50 of 0.1 to 1000 nM.
In the case of `Cc1noc(C)c1-c1cnc2c(c1)c(-c1ccc(C(=O)O)cc1)cn2C(c1ccccn1)C1CCC1` (stereo not drawn) [P-0008, 4-(1-(cyclobutyl(pyridin-2-yl)methyl)-5-(3,5-dimethylisoxazol-4-yl)-1H-pyrrolo[2,3-b]pyridin-3-yl)benzoic acid], the IC50 is reported as 0.1 to 1000 nM.
`Cc1noc(C)c1-c1cnc2c(CC3CCC3)cn(-c3ccc(C(=O)O)cn3)c2c1` [P-0009, 6-(3-(cyclobutylmethyl)-6-(3,5-dimethylisoxazol-4-yl)-1H-pyrrolo[3,2-b]pyridin-1-yl)nicotinic acid] showed an IC50 of 0.1 to 1000 nM.
`Cc1noc(C)c1-c1cnc2c(CC3CC3)cn(-c3ccc(C(=O)O)cn3)c2c1` [P-0010, 6-(3-(cyclopropylmethyl)-6-(3,5-dimethylisoxazol-4-yl)-1H-pyrrolo[3,2-b]pyridin-1-yl)nicotinic acid] was tested, and the IC50 was 0.1 to 1000 nM.
`Cc1noc(C)c1-c1cnc2c(Cc3ccccn3)cn(-c3ccc(C(=O)O)cn3)c2c1` [P-0011, 6-(6-(3,5-dimethylisoxazol-4-yl)-3-(pyridin-2-ylmethyl)-1H-pyrrolo[3,2-b]pyridin-1-yl)nicotinic acid] was tested, and the IC50 was 0.1 to 1000 nM.
Molecule `Cc1noc(C)c1-c1cnc2c(c1)c(-c1ccc(C(=O)O)cc1)cn2C(c1ccccn1)c1ccccn1` [P-0012, 4-(1-(di(pyridin-2-yl)methyl)-5-(3,5-dimethylisoxazol-4-yl)-1H-pyrrolo[2,3-b]pyridin-3-yl)benzoic acid] has an IC50 of 0.1 to 1000 nM.
`Cc1noc(C)c1-c1cnc2c(c1)c(-c1ccc(C(=O)O)cc1F)cn2[C@@H](C)c1ccccn1` [P-0097, (S)-4-(5-(3,5-dimethylisoxazol-4-yl)-1-(1-(pyridin-2-yl)ethyl)-1H-pyrrolo[2,3-b]pyridin-3-yl)-3-fluorobenzoic acid] was tested, and the IC50 was 0.1 to 1000 nM.
`COc1ccc(C(=O)O)cc1-n1cc(CC2CCC2)c2ncc(-c3c(C)noc3C)cc21` [P-0098, 3-(3-(cyclobutylmethyl)-6-(3,5-dimethylisoxazol-4-yl)-1H-pyrrolo[3,2-b]pyridin-1-yl)-4-methoxybenzoic acid] gave an IC50 of 0.1 to 1000 nM.
Work on `Cc1noc(C)c1-c1cnc2c(C(=O)c3cccc(OC(F)F)c3)cn(-c3ccnc(C(=O)O)c3)c2c1` [P-0099, 4-(3-(3-(difluoromethoxy)benzoyl)-6-(3,5-dimethylisoxazol-4-yl)-1H-pyrrolo[3,2-b]pyridin-1-yl)picolinic acid] yielded an IC50 of 0.1 to 1000 nM.
For `Cc1noc(C)c1-c1cnc2c(Cc3cccc(OC(F)F)c3)cn(-c3ccnc(C(=O)O)c3)c2c1` [P-0100, 4-(3-(3-(difluoromethoxy)benzyl)-6-(3,5-dimethylisoxazol-4-yl)-1H-pyrrolo[3,2-b]pyridin-1-yl)picolinic acid], the IC50 was 0.1 to 1000 nM.
`Cc1noc(C)c1-c1cnc2c(c1)c(-c1cccc(C(=O)O)c1)cn2CC1CC(F)(F)C1` [P-0101, 3-(1-((3,3-difluorocyclobutyl)methyl)-5-(3,5-dimethylisoxazol-4-yl)-1H-pyrrolo[2,3-b]pyridin-3-yl)benzoic acid] showed an IC50 of 0.1 to 1000 nM.
With `Cc1noc(C)c1-c1cnc2c(c1)c(-c1cccc(C(=O)O)c1)cn2CC1(C)COC1` [P-0102, 3-(5-(3,5-dimethylisoxazol-4-yl)-1-((3-methyloxetan-3-yl)methyl)-1H-pyrrolo[2,3-b]pyridin-3-yl)benzoic acid] the IC50 was 1000 to 8000 nM.
With `COc1cc(C(=O)O)cc(OC)c1-c1cn([C@@H](C)c2ccccn2)c2ncc(-c3c(C)noc3C)cc12` [P-0103, (S)-4-(5-(3,5-dimethylisoxazol-4-yl)-1-(1-(pyridin-2-yl)ethyl)-1H-pyrrolo[2,3-b]pyridin-3-yl)-3,5-dimethoxybenzoic acid] the IC50 was 0.1 to 1000 nM.
Molecule `Cc1noc(C)c1-c1cnc2c(CC3CCC3)cn(-c3ccc(C#N)c(C(=O)O)c3)c2c1` [P-0104, 2-cyano-5-(3-(cyclobutylmethyl)-6-(3,5-dimethylisoxazol-4-yl)-1H-pyrrolo[3,2-b]pyridin-1-yl)benzoic acid] has an IC50 of 0.1 to 1000 nM.
In the case of `Cc1noc(C)c1-c1cnc2c(CC3CCC3)cn(-c3ccc(C(=O)O)c(C#N)c3)c2c1` [P-0105, 2-cyano-4-(3-(cyclobutylmethyl)-6-(3,5-dimethylisoxazol-4-yl)-1H-pyrrolo[3,2-b]pyridin-1-yl)benzoic acid], the IC50 is reported as 0.1 to 1000 nM.
`Cc1noc(C)c1-c1cnc2c(c1)c(-c1cncc(C(=O)O)n1)cn2[C@@H](C)c1ccccn1` [P-0106, (S)-6-(5-(3,5-dimethylisoxazol-4-yl)-1-(1-(pyridin-2-yl)ethyl)-1H-pyrrolo[2,3-b]pyridin-3-yl)pyrazine-2-carboxylic acid] showed an IC50 of 1000 to 8000 nM.
`Cc1noc(C)c1-c1cnc2c(c1)c(-c1nccc(C(=O)O)n1)cn2[C@@H](C)c1ccccn1` [P-0107, (S)-2-(5-(3,5-dimethylisoxazol-4-yl)-1-(1-(pyridin-2-yl)ethyl)-1H-pyrrolo[2,3-b]pyridin-3-yl)pyrimidine-4-carboxylic acid] was tested, and the IC50 was 1000 to 8000 nM.
Work on `CCOc1cc(C(=O)O)cc(F)c1-n1cc(CC2CCC2)c2ncc(-c3c(C)noc3C)cc21` [P-0108, 4-(3-(cyclobutylmethyl)-6-(3,5-dimethylisoxazol-4-yl)-1H-pyrrolo[3,2-b]pyridin-1-yl)-3-ethoxy-5-fluorobenzoic acid] yielded an IC50 of 0.1 to 1000 nM.
For `CCOc1cc(C(=O)O)cc(OCC)c1-n1cc(CC2CCC2)c2ncc(-c3c(C)noc3C)cc21` [P-0109, 4-(3-(cyclobutylmethyl)-6-(3,5-dimethylisoxazol-4-yl)-1H-pyrrolo[3,2-b]pyridin-1-yl)-3,5-diethoxybenzoic acid], the IC50 was 0.1 to 1000 nM.
`Cc1noc(C)c1-c1cnc2c(CC3CCC3)cn(-c3ccc(C(=O)O)c4ccoc34)c2c1` [P-0110, 7-(3-(cyclobutylmethyl)-6-(3,5-dimethylisoxazol-4-yl)-1H-pyrrolo[3,2-b]pyridin-1-yl)benzofuran-4-carboxylic acid] showed an IC50 of 0.1 to 1000 nM.
`Cc1noc(C)c1-c1cnc2c(CC3CCC3)cn(-c3c(OC(C)C)cc(C(=O)O)cc3OC(C)C)c2c1` [P-0111, 4-(3-(cyclobutylmethyl)-6-(3,5-dimethylisoxazol-4-yl)-1H-pyrrolo[3,2-b]pyridin-1-yl)-3,5-diisopropoxybenzoic acid] gave an IC50 of 0.1 to 1000 nM.
`Cc1noc(C)c1-c1cnc2c(c1)c(-c1ccc(C(=O)O)cc1OC(C)C)cn2[C@@H](C)c1ccccn1` [P-0112, (S)-4-(5-(3,5-dimethylisoxazol-4-yl)-1-(1-(pyridin-2-yl)ethyl)-1H-pyrrolo[2,3-b]pyridin-3-yl)-3-isopropoxybenzoic acid] was tested, and the IC50 was 0.1 to 1000 nM.
Work on `CCCOc1cc(C(=O)O)ccc1-c1cn([C@@H](C)c2ccccn2)c2ncc(-c3c(C)noc3C)cc12` [P-0113, (S)-4-(5-(3,5-dimethylisoxazol-4-yl)-1-(1-(pyridin-2-yl)ethyl)-1H-pyrrolo[2,3-b]pyridin-3-yl)-3-propoxybenzoic acid] yielded an IC50 of 0.1 to 1000 nM.
